Experimental data reported in PubChem BioAssay (NCI).
Values joined by “and” are separate entries in the source; they are usually repeats but may differ in a detail not shown here. Equal values may be shown once.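 Cells were grown in 96-well plates and exposed to each compound for 48 hours at five concentrations; endpoints were interpolated linearly between bracketing concentrations, or set to the highest concentration if not reached. GI50: concentration for 50% inhibition of growth. TGI: concentration producing complete growth inhibition.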

What was measured:
Assay in all cases: DTP human tumour cell line panel, 48 h
SK-MEL-28 melanoma = system: SK-MEL-28 melanoma
COLO 205 colon = system: COLO 205 colon
DMS 273 small cell lung = system: DMS 273 small cell lung
SK-MEL-2 melanoma = system: SK-MEL-2 melanoma
HS 578T breast = system: HS 578T breast
M14 melanoma = system: M14 melanoma
SF-268 CNS = system: SF-268 CNS
SR leukemia = system: SR leukemia
A549 NSCLC = system: A549 NSCLC
DMS 114 small cell lung = system: DMS 114 small cell lung
UACC-257 melanoma = system: UACC-257 melanoma
BT-549 breast = system: BT-549 breast
IGROV1 ovarian = system: IGROV1 ovarian
OVCAR-5 ovarian = system: OVCAR-5 ovarian
SW-620 colon = system: SW-620 colon
MALME-3M melanoma = system: MALME-3M melanoma
HL-60(TB) leukemia = system: HL-60(TB) leukemia
OVCAR-3 ovarian = system: OVCAR-3 ovarian
NCI-H23 lung = system: NCI-H23 lung
EKVX NSCLC = system: EKVX NSCLC
HCT-15 colon = system: HCT-15 colon
HCC-2998 colon = system: HCC-2998 colon
NCI-H522 lung = system: NCI-H522 lung
U251 CNS = system: U251 CNS
M19-MEL melanoma = system: M19-MEL melanoma
T-47D breast = system: T-47D breast
K-562 leukemia = system: K-562 leukemia
UO-31 renal = system: UO-31 renal
LXFL 529 NSCLC = system: LXFL 529 NSCLC
SNB-78 CNS = system: SNB-78 CNS
SN12C renal = system: SN12C renal
MCF7 breast = system: MCF7 breast
MDA-MB-435 = system: MDA-MB-435
LOX IMVI melanoma = system: LOX IMVI melanoma
NCI-H460 lung = system: NCI-H460 lung
XF 498 CNS = system: XF 498 CNS
DLD-1 colon = system: DLD-1 colon
RXF 393 renal = system: RXF 393 renal
SK-OV-3 ovarian = system: SK-OV-3 ovarian
HCT-116 colon = system: HCT-116 colon
A498 renal = system: A498 renal
OVCAR-4 ovarian = system: OVCAR-4 ovarian
MDA-MB-231 breast = system: MDA-MB-231 breast
TK-10 renal = system: TK-10 renal
CAKI-1 renal = system: CAKI-1 renal
RPMI-8226 leukemia = system: RPMI-8226 leukemia
KM20L2 colon = system: KM20L2 colon
HOP-62 NSCLC = system: HOP-62 NSCLC
786-0 renal = system: 786-0 renal
MOLT-4 leukemia = system: MOLT-4 leukemia
HOP-18 NSCLC = system: HOP-18 NSCLC
ACHN renal = system: ACHN renal
SK-MEL-5 melanoma = system: SK-MEL-5 melanoma
PC-3 prostate = system: PC-3 prostate
HT29 colon = system: HT29 colon
NCI-H226 lung = system: NCI-H226 lung
OVCAR-8 ovarian = system: OVCAR-8 ovarian
SF-295 CNS = system: SF-295 CNS
SNB-75 CNS = system: SNB-75 CNS
UACC-62 melanoma = system: UACC-62 melanoma
HOP-92 NSCLC = system: HOP-92 NSCLC
DU-145 prostate = system: DU-145 prostate
NCI/ADR-RES ovarian = system: NCI/ADR-RES ovarian
MDA-N = system: MDA-N
SF-539 CNS = system: SF-539 CNS

Q: How did the GI50 (SK-MEL-28 melanoma) turn out when `CC[C@@]1(OC(=O)CN(C)C)C(=O)OCc2c1cc1n(c2=O)Cc2cc3ccccc3nc2-1` was run?
A: 1010 nM

Q: What about the GI50 (COLO 205 colon) of the same compound?
A: 288 nM

Q: What about the TGI (COLO 205 colon) of the same compound?
A: 6300 nM

Q: What about the TGI (DMS 273 small cell lung) of the same compound?
A: 149 nM

Q: And the GI50 (SK-MEL-2 melanoma)?
A: 1090 nM

Q: What about the TGI (SK-MEL-2 melanoma) of the same compound?
A: 3470 nM and 5340 nM

Q: What about the GI50 (HS 578T breast) of the same compound?
A: 3530 nM

Q: And the TGI (HS 578T breast)?
A: > 100000 nM

Q: What about the GI50 (M14 melanoma) of the same compound?
A: 42.4 nM

Q: And the TGI (M14 melanoma)?
A: 574 nM and 559 nM

Q: What about the GI50 (SF-268 CNS) of the same compound?
A: 46.4 nM

Q: And the GI50 (SR leukemia)?
A: 2.09 nM

Q: What about the TGI (SR leukemia) of the same compound?
A: 114 nM and < 42.7 nM

Q: What about the GI50 (A549 NSCLC) of the same compound?
A: 42 nM

Q: What about the TGI (A549 NSCLC) of the same compound?
A: 4330 nM and 7120 nM

Q: And the TGI (DMS 114 small cell lung)?
A: 1530 nM

Q: And the GI50 (UACC-257 melanoma)?
A: 131 nM

Q: What about the TGI (UACC-257 melanoma) of the same compound?
A: 1120 nM and 1310 nM

Q: What about the GI50 (BT-549 breast) of the same compound?
A: 116 nM

Q: And the TGI (BT-549 breast)?
A: 4090 nM and 8640 nM

Q: And the GI50 (IGROV1 ovarian)?
A: 217 nM

Q: And the TGI (IGROV1 ovarian)?
A: 4430 nM and > 23300 nM

Q: What about the GI50 (OVCAR-5 ovarian) of the same compound?
A: 184 nM

Q: What about the TGI (OVCAR-5 ovarian) of the same compound?
A: 2930 nM and 5920 nM

Q: And the GI50 (SW-620 colon)?
A: 160 nM

Q: And the GI50 (MALME-3M melanoma)?
A: 293 nM

Q: And the TGI (MALME-3M melanoma)?
A: 4960 nM and 4890 nM

Q: What about the GI50 (HL-60(TB) leukemia) of the same compound?
A: 28.2 nM

Q: What about the TGI (HL-60(TB) leukemia) of the same compound?
A: 389 nM and 179 nM

Q: And the GI50 (OVCAR-3 ovarian)?
A: 356 nM

Q: And the TGI (OVCAR-3 ovarian)?
A: 2150 nM and 1730 nM

Q: And the GI50 (NCI-H23 lung)?
A: 20.7 nM

Q: What about the TGI (NCI-H23 lung) of the same compound?
A: 342 nM and 381 nM

Q: What about the GI50 (EKVX NSCLC) of the same compound?
A: 1880 nM

Q: And the GI50 (HCT-15 colon)?
A: 257 nM

Q: And the TGI (HCT-15 colon)?
A: 5030 nM and 3090 nM

Q: And the GI50 (HCC-2998 colon)?
A: 322 nM

Q: And the TGI (HCC-2998 colon)?
A: 1320 nM and 1760 nM

Q: What about the GI50 (NCI-H522 lung) of the same compound?
A: 39.6 nM

Q: What about the TGI (NCI-H522 lung) of the same compound?
A: 3450 nM and 1680 nM

Q: What about the GI50 (U251 CNS) of the same compound?
A: < 17.5 nM

Q: What about the TGI (U251 CNS) of the same compound?
A: 958 nM and 425 nM

Q: And the GI50 (M19-MEL melanoma)?
A: 101 nM

Q: And the TGI (M19-MEL melanoma)?
A: 2130 nM and 1090 nM

Q: What about the GI50 (T-47D breast) of the same compound?
A: 4.98 nM and 45.1 nM

Q: And the TGI (T-47D breast)?
A: 320 nM and 2030 nM

Q: What about the GI50 (K-562 leukemia) of the same compound?
A: 108 nM

Q: What about the TGI (K-562 leukemia) of the same compound?
A: 7670 nM and > 41500 nM

Q: And the GI50 (UO-31 renal)?
A: 18.1 nM

Q: What about the TGI (UO-31 renal) of the same compound?
A: 231 nM and 107 nM

Q: What about the GI50 (LXFL 529 NSCLC) of the same compound?
A: 577 nM

Q: And the TGI (LXFL 529 NSCLC)?
A: 5020 nM and 3350 nM

Q: And the GI50 (SNB-78 CNS)?
A: 957 nM

Q: What about the TGI (SNB-78 CNS) of the same compound?
A: > 100000 nM

Q: And the TGI (SN12C renal)?
A: 4030 nM and 892 nM

Q: And the GI50 (MCF7 breast)?
A: 23.5 nM

Q: What about the TGI (MCF7 breast) of the same compound?
A: > 100000 nM

Q: And the TGI (MDA-MB-435)?
A: 1540 nM

Q: What about the GI50 (LOX IMVI melanoma) of the same compound?
A: < 16.1 nM

Q: And the TGI (LOX IMVI melanoma)?
A: 285 nM and 218 nM

Q: What about the TGI (NCI-H460 lung) of the same compound?
A: 147 nM

Q: And the TGI (XF 498 CNS)?
A: 3190 nM

Q: What about the GI50 (DLD-1 colon) of the same compound?
A: 806 nM

Q: And the TGI (DLD-1 colon)?
A: 30400 nM

Q: And the GI50 (RXF 393 renal)?
A: 66.5 nM

Q: And the TGI (RXF 393 renal)?
A: 643 nM and 430 nM

Q: And the GI50 (SK-OV-3 ovarian)?
A: 123 nM

Q: What about the TGI (SK-OV-3 ovarian) of the same compound?
A: 2880 nM

Q: And the GI50 (HCT-116 colon)?
A: 39.1 nM

Q: What about the GI50 (A498 renal) of the same compound?
A: 85.1 nM

Q: And the TGI (A498 renal)?
A: 984 nM and 317 nM

Q: What about the GI50 (OVCAR-4 ovarian) of the same compound?
A: 205 nM

Q: What about the TGI (OVCAR-4 ovarian) of the same compound?
A: 5610 nM and 733 nM

Q: And the GI50 (MDA-MB-231 breast)?
A: 1440 nM

Q: And the TGI (MDA-MB-231 breast)?
A: > 100000 nM

Q: And the GI50 (TK-10 renal)?
A: 481 nM

Q: What about the TGI (TK-10 renal) of the same compound?
A: 7850 nM

Q: What about the TGI (CAKI-1 renal) of the same compound?
A: 2400 nM and 806 nM

Q: And the GI50 (RPMI-8226 leukemia)?
A: 4.64 nM

Q: And the TGI (KM20L2 colon)?
A: 4940 nM

Q: And the TGI (HOP-62 NSCLC)?
A: 1360 nM

Q: What about the TGI (786-0 renal) of the same compound?
A: 1110 nM and 125 nM

Q: What about the TGI (MOLT-4 leukemia) of the same compound?
A: 318 nM and 344 nM

Q: And the GI50 (HOP-18 NSCLC)?
A: 113 nM

Q: What about the TGI (ACHN renal) of the same compound?
A: 273 nM

Q: What about the GI50 (SK-MEL-5 melanoma) of the same compound?
A: 37.9 nM

Q: What about the TGI (SK-MEL-5 melanoma) of the same compound?
A: 316 nM and 213 nM

Q: What about the GI50 (PC-3 prostate) of the same compound?
A: 476 nM

Q: What about the GI50 (HT29 colon) of the same compound?
A: 156 nM

Q: What about the TGI (NCI-H226 lung) of the same compound?
A: 420 nM and 445 nM

Q: What about the GI50 (OVCAR-8 ovarian) of the same compound?
A: 52.1 nM

Q: And the GI50 (SF-295 CNS)?
A: < 12.7 nM

Q: What about the TGI (SF-295 CNS) of the same compound?
A: 673 nM and 938 nM

Q: And the GI50 (SNB-75 CNS)?
A: 47.5 nM

Q: And the TGI (SNB-75 CNS)?
A: 5800 nM and 4300 nM

Q: And the GI50 (UACC-62 melanoma)?
A: < 12 nM

Q: What about the TGI (UACC-62 melanoma) of the same compound?
A: 116 nM and 132 nM

Q: What about the GI50 (HOP-92 NSCLC) of the same compound?
A: 216 nM

Q: And the TGI (HOP-92 NSCLC)?
A: 944 nM and 2190 nM

Q: And the GI50 (DU-145 prostate)?
A: 20.7 nM

Q: What about the TGI (DU-145 prostate) of the same compound?
A: 246 nM and 484 nM

Q: And the GI50 (NCI/ADR-RES ovarian)?
A: 37.7 nM

Q: And the TGI (MDA-N)?
A: 1920 nM and 3800 nM

Q: What about the GI50 (SF-539 CNS) of the same compound?
A: < 16.7 nM

Q: And the TGI (SF-539 CNS)?
A: 57.2 nM and 315 nM
